# Source: US6770632B1, “Folypolyglutamyl synthetase gene transfer to enhance antifolate” (priority 1999, dated 2004)
# Read-outs that look alike come from different tables or passages of the source.
# Columns and labels:
# 9L cells [1] = experiment: Cell culture survival study, 9L cells; assay type: cell-based, rat; conditions: for EC50: Rattus norvegicus, 9L, read-out: ED50 (the source's name)
# Experimental: (§1) Cell Culture Survival Studies: Cells were plated in triplicate at 8×10^5 cells per 10-cm-diameter plate, and were allowed to adhere for 4 hours, after which the medium was replaced with medium containing MTX or EDX. […] Drug-free medium was then added, and three days later the cells were trypsinized and counted on a model ZM Coulter apparatus. Dose-response curves were generated using Sigma Plot 3.0, which employs curve-fitting parameters based on the Marquardt-Levenberg method (Marquardt, D. W., Siam, J., J. Soc. Indust. Appl. Math 11:431-441 (1963)).
# [2] = system: cocultures of 9L/FPGS and 9L cells; experiment: Bystander effect study, cocultures of 9L/FPGS and 9L cells; assay type: cell-based, rat
# Experimental: For bystander effect studies, cells were plated in triplicate with varying combinations of 9L/FPGS and 9L cells such that the total number of cells was 8×10^5 per 10-cm-diameter plate. The same protocol of 4 hour cell adherence followed by 4 hour drug exposure, washes, growth in drug free medium for 3 days, and counting on a ZM coulter apparatus was then followed. […] Four mL conditioned medium+2 mL fresh medium were added to 10-cm-diameter plates containing 9L/BAG cells plated overnight (1000 cells/dish, with a clonogenic efficiency of approximately 20%). Six days later, the cells were fixed with 4% paraformaldehyde in PBS. Fixed cells were stained for LacZ by incubating overnight in a solution containing 35 mM potassium ferricyanide, 35 mM potassium ferrocyanide, 2 mM magnesium chloride, and 0.2% 5-bromo-4-chloro-3-indolyl-β-D galactoside (Xgal; Fisher Scientific Co.;Pittsburgh, Pa.) at pH=7.3 (Price, J., et al., Proceedings of the National Academy of Sciences USA 84:156-160 (1987)). The next day, blue colonies greater than 1 mm in diameter were counted.
# However, a more quantitative approach is to generate a dose-response curve for nontransfected cells, transfected cells, and a coculture and to calculate the transmission efficiency (TE) for the coculture (Friedlos, F., et al., Journal of Medicinal Chemistry 40:1270-1275 (1997)). [formula]
# The superscripts 0, N, and 100 designate the ED50 values for cultures containing 0, N, and 100% transfected cells.
# 9L cells [3] = conditions: rat, 24 h, 2 μM
# Experimental: (§3) Thin Layer Chromatography of MTX Metabolites: 10^6 9L or 9L/FPGS cells were plated in 6-cm diameter dishes and allowed to adhere for 4 hours, after which cells were incubated overnight with 2 μM 3′, 5′, 7-[^3H] methotrexate (Moravek Biochemicals; Brea, Calif.). Cells were then trypsinized, centrifuged, resuspended in 300 μL deionized water, and sonicated for 45 seconds at half-maximal power. Sonicated cells were centrifuged briefly to remove cellular debris, after which protein concentration was calculated using the Bradford protein assay. Proteins were precipitated with 1 mL methanol at −20° C. for 2 hr. Precipitated proteins were removed by centrifugation at 20,000 g for 30 min, and the supernatant was then concentrated to 30 μL under a stream of N2 at 37° C. on a Meyer N-Evap Analytical Evaporator (Organomation Associates Inc., Northborough, Mass.). A 1 μL aliquot was scintillation counted—cpm were converted into moles of drug taken up by determining the cpm of a known quantity of [^3H] MTX. […] Plates were eluted with a chloroforrn-methanol-acetic acid mixture (2:2:1) containing 20 mg/mL cetyl trimethylammonium bromide (Sigma). Following elution, the plates were placed under ordinary fluorescent light for 2 days, after which 20 nmol unlabelled standards were visualized under long-wave ultraviolet light. Plates were run in duplicate and the average RF values of the standards were: MTX=0.66; MTX-G1=0.59; MTX-G2=0.44, MTX-G3=0.33; MTX-G4=0.27; MTX-G5=0.25. Regions corresponding to where standards migrated were marked in the sample lane, scraped individually into scintillation vials, and counted. The amount of each radioactive metabolite in a sample lane was determined as a percentage of the total radioactivity recovered from that sample lane, after subtraction of the background counts obtained from lanes lacking radioactive sample.
# [4] = mouse, in vivo, 9 mg/kg; cited from earlier work
# subcutaneous 9L tumors = experiment: Growth of subcutaneous 9L tumors in nude mice; assay type: in vivo; conditions: after three weeks
# Experimental: (§2) In Vivo Experiments: 10^5 9L or 9L/FPGS cells or a mixture of 8×10^5 9L+2×10^5 9L/FPGS cells in 200 μL DMEM were injected subcutaneously into the flanks of six week old female nude mice (NCr/Sed, nu/nu, 20 gm; Massachusetts General Hospital breeding colony). After 14 days, when the tumors had reached an average volume of 60 mm^3, the mice were randomly divided into experimental groups with five mice per group. Intraperitoneal injections of varying MTX or EDX doses dissolved in 200 μL 0.9% NaCl were administered either daily or every third day. Tumor size was measured weekly using calipers. Tumor volume was calculated as length×width×height, as described previously (Takamiya, Y., et al., Journal of Neuroscience Research 33:493-503 (1992)).
# 9L/FPGS cells [5] = experiment: Cell culture survival study, 9L/FPGS cells; assay type: cell-based, rat; conditions: for EC50: Rattus norvegicus, 9L/FPGS, read-out: ED50 (the source's name)
# Experimental: as §1
# in vivo = conditions: nude, mouse, ip
# [6] = system: subcutaneous 9L/FPGS tumors; experiment: Growth of subcutaneous 9L/FPGS tumors in nude mice; assay type: in vivo; conditions: after three weeks
# Experimental: as §2
# U87 cells = experiment: Cell culture survival study, U87 cells; assay type: cell-based, human
# Experimental: Cell Culture Survival Studies: Cells were plated in triplicate at 8×10^5 cells per 10-cm-diameter plate, and were allowed to adhere for 4 hours, after which the medium was replaced with medium containing MTX or EDX. After 4 hours drug exposure, the plates were washed three times with 4 mL PBS. Drug-free medium was then added, and three days later the cells were trypsinized and counted on a model ZM Coulter apparatus. Dose-response curves were generated using Sigma Plot 3.0, which employs curve-fitting parameters based on the Marquardt-Levenberg method (Marquardt, D. W., Siam, J., J. Soc. Indust. Appl. Math 11:431-441 (1963)).
# [7] = nude mice, five consecutive days, previous studies (Inaba 1989); cited from earlier work
# 9L/FPGS cells [8] = conditions: rat, 24 h, 2 μM
# Experimental: as §3
# [9] = Maximum tolerated (nonlethal) dose in nude mice
# hepatoma cells = conditions: cited from earlier work
# [10] = in vivo, cited from earlier work
# [11] = 4 h, 4 hrs drug exposure, curves of FIG. 1 (MTX) / FIG. 3a (EDX)
smiles,measurement,setting,value
"CN(Cc1cnc2nc(N)nc(N)c2n1)c1ccc(C(=O)N[C@@H](CCC(=O)O)C(=O)O)cc1 [MTX, Amethopterin]",survival,"9L cells [1]; 9L cells, 0.3 μM for 4 hours, 3 days drug-free medium",~90%
same,EC50,"9L cells [1]; 4 h, 4 hrs drug exposure, bystander experiment FIG. 4a",2700 nM
same,EC50,9L cells [1]; [11],2900 nM
same,EC50,"9L cells [1]; 72 h, 72 hrs drug exposure",40 nM
same,EC50,"[2]; Rattus norvegicus, coculture 20% 9L/FPGS + 80% 9L, 4 hrs drug exposure, FIG. 4a, read-out: ED50 (the source's name)",1400 nM
same,transmission efficiency (TE),"[2]; cocultures containing 20% 9L/FPGS cells, 4 hour pulses",49.9%
same,TOTAL MTX ACCUMULATED,9L cells [3],6.3 pmol/mg protein
same,total radioactivity associated with the higher order polyglutamates MTX-G4 and G5,9L cells [3],14%
same,peak plasma level,[4],0.03 mM
same,fold growth of tumor volume,subcutaneous 9L tumors; 9 mg/kg daily i.p.,10 fold
same,fold growth of tumor volume,subcutaneous 9L tumors; 9 mg/kg every third day i.p.,26 fold
same,range of concentrations with statistically significant difference in survival between 9L and 9L/FPGS,9L/FPGS cells [5]; 4 hour pulses,100 fold
same,difference in ED50 between 9L and 9L/FPGS,"9L/FPGS cells [5]; 4 hour pulses, FIG. 1 / FIG. 3A",29 fold
same,EC50,"9L/FPGS cells [5]; 4 h, 4 hrs drug exposure, bystander experiment FIG. 4a (MTX) / 4b (EDX)",93 nM
same,EC50,9L/FPGS cells [5]; [11],101 nM
same,EC50,"9L/FPGS cells [5]; 72 h, 72 hrs drug exposure",40 nM
same,survival,"9L/FPGS cells [5]; two G418-resistant clones (one designated 9L/FPGS), 0.3 μM for 4 hours, 3 days drug-free medium",approximately 40%
same,MTD,in vivo,9 mg/kg/day
same,fold growth of tumor volume,[6]; 9 mg/kg daily i.p.,4 fold
same,fold growth of tumor volume,[6]; 9 mg/kg every third day i.p.,9 fold
same,ED50 of U87 higher than that of 9L,U87 cells; 4 hour pulse,over 10 fold
same,EC50,"U87 cells; Homo sapiens, U-87 MG, U87, 4 hrs drug exposure, 3 days drug-free, read-out: ED50 (the source's name)",30000 nM
same,maximum tolerated (nonlethal) dose (MTD),[7],15 mg/kg/day
same,POLYGLUTAMATE DISTRIBUTION (percentages of total sample lane radioactivity),9L/FPGS cells [8],10%
same,TOTAL MTX ACCUMULATED,9L/FPGS cells [8],12.7 pmol/mg protein
same,total radioactivity associated with the higher order polyglutamates MTX-G4 and G5,9L/FPGS cells [8],31%
same,maximum nonlethal dose,[9],9 mg/kg
same,total intracellular polyglutamate pool leaving the cell as monoglutamylated MTX,hepatoma cells,43%
same,peak plasma level,[10]; 50 mg/kg,0.1 mM
same,dose at which toxic side effects are experienced,[10],50 mg/kg
